Test results: the kinase profiling compilation of Christmann-Franck et al. (2016)

What was measured:
Experiment in all cases: radiometric filter-binding kinase assay
BRSK1 (human) = BRSK1 (human) (UniProt Q8TDC3)
BRSK2 (human) = BRSK2 (human) (UniProt Q8IWQ3)
CAMKK2 (human) = CAMKK2 (human) (UniProt Q96RR4)
DAPK1 (human) = DAPK1 (human) (UniProt P53355)
DYRK1A (human) = DYRK1A (human) (UniProt Q13627)
EEF2K (human) = EEF2K (human) (UniProt O00418)
EPHB4 (human) = EPHB4 (human) (UniProt P54760)
ERBB4 (human) = ERBB4 (human) (UniProt Q15303)
FGFR1 (human) = FGFR1 (human) (UniProt P11362)
GSK3B (human) = GSK3B (human) (UniProt P49841)
HIPK3 (human) = HIPK3 (human) (UniProt Q9H422)
IGF1R (human) = IGF1R (human) (UniProt P08069)
IKBKE (human) = IKBKE (human) (UniProt Q14164)
MAP2K2 (human) = MAP2K2 (human) (UniProt P36507)
MAP2K6 (human) = MAP2K6 (human) (UniProt P52564)
MAP3K5 (human) = MAP3K5 (human) (UniProt Q99683)
MAPK12 (human) = MAPK12 (human) (UniProt P53778)
MAPK13 (human) = MAPK13 (human) (UniProt O15264)
MAPK3 (human) = MAPK3 (human) (UniProt P27361)
MAPK9 (human) = MAPK9 (human) (UniProt P45984)
MAPKAPK2 (human) = MAPKAPK2 (human) (UniProt P49137)
MAPKAPK5 (human) = MAPKAPK5 (human) (UniProt Q8IW41)
MARK1 (human) = MARK1 (human) (UniProt Q9P0L2)
MELK (human) = MELK (human) (UniProt Q14680)
MKNK1 (human) = MKNK1 (human) (UniProt Q9BUB5)
PAK7 (human) = PAK7 (human) (UniProt Q9P286)
PHKG1 (human) = PHKG1 (human) (UniProt Q16816)
PIM1 (human) = PIM1 (human) (UniProt P11309)
PIM2 (human) = PIM2 (human) (UniProt Q9P1W9); conditions: compound 10.0 µM
PIM3 (human) = PIM3 (human) (UniProt Q86V86)
PRKAA1 or PRKAA2 (rat) = conditions: accession and sequence are those of the human protein
PRKACA (human) = PRKACA (human) (UniProt P17612); conditions: compound 1.0 µM
PRKCZ (human) = PRKCZ (human) (UniProt Q05513)
[1] = tested on: SGK1 (human), O00141 [S422D]
STK3 (human) = STK3 (human) (UniProt Q13188)
SYK (human) = SYK (human) (UniProt P43405)

Chain of MAP2K2 (human) (P36507 whole entry, looked up): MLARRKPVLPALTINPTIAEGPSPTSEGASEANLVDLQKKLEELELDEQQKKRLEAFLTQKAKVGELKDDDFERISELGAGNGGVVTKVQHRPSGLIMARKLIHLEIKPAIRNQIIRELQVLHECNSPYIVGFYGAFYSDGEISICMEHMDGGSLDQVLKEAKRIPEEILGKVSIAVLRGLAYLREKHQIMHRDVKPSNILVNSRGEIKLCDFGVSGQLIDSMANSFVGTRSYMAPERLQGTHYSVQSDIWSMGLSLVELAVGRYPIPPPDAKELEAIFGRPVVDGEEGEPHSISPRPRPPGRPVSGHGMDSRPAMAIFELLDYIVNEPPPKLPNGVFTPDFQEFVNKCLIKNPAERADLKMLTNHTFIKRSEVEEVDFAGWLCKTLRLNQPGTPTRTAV
Chain of MELK (human) (Q14680 whole entry, looked up): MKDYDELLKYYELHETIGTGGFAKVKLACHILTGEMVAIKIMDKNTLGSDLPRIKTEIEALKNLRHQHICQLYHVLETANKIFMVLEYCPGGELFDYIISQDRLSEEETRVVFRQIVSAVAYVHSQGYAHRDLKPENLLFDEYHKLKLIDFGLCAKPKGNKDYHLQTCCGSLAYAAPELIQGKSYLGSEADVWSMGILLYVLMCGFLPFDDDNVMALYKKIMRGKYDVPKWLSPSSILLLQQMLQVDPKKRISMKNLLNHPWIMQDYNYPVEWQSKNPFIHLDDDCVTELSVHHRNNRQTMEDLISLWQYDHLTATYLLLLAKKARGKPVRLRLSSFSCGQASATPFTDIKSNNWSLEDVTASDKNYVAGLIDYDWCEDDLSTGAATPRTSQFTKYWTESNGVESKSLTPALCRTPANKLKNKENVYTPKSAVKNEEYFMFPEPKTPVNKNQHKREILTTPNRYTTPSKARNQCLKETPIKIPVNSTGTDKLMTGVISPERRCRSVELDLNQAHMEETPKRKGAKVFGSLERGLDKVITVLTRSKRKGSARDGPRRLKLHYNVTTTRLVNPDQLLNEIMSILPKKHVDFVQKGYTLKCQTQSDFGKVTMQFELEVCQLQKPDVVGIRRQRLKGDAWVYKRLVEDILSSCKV
Chain of IKBKE (human) (Q14164 whole entry, looked up): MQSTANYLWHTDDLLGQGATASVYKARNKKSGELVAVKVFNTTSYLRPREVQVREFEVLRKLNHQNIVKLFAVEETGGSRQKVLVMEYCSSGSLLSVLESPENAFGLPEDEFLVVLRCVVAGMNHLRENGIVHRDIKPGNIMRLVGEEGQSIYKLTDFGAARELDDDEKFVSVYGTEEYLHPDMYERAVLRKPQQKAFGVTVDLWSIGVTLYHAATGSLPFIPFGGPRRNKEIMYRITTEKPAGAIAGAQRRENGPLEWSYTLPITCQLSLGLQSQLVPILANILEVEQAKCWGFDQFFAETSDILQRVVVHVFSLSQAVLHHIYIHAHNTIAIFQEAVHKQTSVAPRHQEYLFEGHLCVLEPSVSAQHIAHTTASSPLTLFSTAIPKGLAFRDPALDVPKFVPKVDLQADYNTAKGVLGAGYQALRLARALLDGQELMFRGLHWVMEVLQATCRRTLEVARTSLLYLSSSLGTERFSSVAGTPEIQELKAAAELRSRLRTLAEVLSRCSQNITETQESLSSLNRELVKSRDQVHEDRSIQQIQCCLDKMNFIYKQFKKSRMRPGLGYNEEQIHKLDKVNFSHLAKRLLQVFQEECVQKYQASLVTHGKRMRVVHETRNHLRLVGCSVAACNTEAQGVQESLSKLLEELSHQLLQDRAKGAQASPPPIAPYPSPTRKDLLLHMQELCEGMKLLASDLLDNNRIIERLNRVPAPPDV
Chain of BRSK2 (human) (Q8IWQ3 whole entry, looked up): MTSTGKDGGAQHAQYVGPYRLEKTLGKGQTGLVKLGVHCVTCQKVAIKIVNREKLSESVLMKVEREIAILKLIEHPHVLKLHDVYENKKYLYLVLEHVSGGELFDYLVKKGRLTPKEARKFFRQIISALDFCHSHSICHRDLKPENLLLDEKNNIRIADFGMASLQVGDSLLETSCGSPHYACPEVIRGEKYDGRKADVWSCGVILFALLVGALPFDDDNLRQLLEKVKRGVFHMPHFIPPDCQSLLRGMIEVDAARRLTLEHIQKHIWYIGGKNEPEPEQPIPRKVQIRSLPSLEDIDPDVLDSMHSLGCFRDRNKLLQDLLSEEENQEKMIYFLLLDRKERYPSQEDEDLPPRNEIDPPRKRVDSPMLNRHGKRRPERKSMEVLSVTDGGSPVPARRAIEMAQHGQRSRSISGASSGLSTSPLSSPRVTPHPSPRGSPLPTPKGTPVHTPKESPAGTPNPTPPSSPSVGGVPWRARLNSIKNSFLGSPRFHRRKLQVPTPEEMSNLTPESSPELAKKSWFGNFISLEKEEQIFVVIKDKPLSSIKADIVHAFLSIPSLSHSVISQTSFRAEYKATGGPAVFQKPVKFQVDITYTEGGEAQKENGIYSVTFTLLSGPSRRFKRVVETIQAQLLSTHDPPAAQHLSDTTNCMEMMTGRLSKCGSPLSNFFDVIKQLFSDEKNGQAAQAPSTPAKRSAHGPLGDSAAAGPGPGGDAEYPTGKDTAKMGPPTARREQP
Chain of MAPK12 (human) (P53778 whole entry, looked up): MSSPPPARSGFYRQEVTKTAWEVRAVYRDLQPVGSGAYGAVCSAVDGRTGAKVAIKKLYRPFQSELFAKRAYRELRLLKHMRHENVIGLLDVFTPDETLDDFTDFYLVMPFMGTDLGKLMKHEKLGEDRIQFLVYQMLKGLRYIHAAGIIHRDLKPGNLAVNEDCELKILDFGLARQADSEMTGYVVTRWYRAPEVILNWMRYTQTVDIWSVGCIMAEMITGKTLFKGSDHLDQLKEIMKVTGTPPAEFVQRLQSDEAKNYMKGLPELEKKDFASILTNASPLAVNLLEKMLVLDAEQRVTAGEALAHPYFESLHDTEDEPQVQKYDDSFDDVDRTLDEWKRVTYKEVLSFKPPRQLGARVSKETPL
Chain of MARK1 (human) (Q9P0L2 whole entry, looked up): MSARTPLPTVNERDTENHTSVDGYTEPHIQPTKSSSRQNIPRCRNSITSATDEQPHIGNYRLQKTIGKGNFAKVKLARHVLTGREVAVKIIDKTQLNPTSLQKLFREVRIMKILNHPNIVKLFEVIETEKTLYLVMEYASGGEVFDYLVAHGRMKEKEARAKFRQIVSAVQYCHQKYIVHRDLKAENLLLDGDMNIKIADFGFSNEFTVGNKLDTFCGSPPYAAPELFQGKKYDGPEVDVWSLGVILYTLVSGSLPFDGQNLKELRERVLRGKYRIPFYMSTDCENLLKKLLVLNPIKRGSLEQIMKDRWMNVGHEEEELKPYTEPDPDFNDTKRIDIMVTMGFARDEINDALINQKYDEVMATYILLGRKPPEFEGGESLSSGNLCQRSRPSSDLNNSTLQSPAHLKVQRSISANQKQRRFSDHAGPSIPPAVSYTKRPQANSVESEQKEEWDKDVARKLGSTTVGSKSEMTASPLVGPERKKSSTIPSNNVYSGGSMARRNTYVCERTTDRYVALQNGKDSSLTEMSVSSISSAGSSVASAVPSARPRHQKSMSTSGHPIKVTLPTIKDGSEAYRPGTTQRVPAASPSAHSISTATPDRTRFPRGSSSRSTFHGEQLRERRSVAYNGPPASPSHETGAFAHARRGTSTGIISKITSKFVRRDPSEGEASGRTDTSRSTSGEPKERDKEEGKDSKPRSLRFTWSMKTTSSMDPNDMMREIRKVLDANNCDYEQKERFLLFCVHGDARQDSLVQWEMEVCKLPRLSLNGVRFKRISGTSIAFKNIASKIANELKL
Chain of PAK7 (human) (Q9P286 whole entry, looked up): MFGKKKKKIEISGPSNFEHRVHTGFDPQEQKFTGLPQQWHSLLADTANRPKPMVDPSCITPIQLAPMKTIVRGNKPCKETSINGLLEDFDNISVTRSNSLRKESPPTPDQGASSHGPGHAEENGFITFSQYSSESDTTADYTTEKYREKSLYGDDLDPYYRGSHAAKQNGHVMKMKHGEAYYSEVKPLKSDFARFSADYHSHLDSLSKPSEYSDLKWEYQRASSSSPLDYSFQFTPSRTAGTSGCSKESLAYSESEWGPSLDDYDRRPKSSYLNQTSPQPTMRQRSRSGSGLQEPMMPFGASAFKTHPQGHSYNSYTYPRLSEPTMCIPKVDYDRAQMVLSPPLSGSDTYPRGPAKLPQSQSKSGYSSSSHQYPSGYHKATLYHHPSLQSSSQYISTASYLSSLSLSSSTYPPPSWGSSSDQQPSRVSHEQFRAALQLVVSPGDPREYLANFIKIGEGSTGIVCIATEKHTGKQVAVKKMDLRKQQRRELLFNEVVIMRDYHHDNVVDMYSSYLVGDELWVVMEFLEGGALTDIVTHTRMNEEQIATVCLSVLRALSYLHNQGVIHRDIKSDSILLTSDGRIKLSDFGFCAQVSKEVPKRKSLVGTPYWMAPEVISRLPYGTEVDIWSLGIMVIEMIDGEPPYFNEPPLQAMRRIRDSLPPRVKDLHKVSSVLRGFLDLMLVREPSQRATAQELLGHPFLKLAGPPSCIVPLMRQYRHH
Chain of PIM1 (human) (P11309 whole entry, looked up): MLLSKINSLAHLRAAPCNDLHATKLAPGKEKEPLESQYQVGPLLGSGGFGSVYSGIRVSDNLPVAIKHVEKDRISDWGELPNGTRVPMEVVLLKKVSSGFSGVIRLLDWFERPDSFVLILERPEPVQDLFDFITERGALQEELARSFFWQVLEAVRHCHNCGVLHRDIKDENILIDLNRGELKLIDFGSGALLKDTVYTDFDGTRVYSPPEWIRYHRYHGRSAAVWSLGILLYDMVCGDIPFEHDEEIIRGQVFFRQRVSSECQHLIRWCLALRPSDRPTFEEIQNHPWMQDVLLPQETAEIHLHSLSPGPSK

residual activity (BRSK1 (human); compound 1.0 µM): 82%
residual activity (BRSK1 (human); compound 10.0 µM): 50%
residual activity (BRSK2 (human); compound 1.0 µM): 80%
residual activity (BRSK2 (human); compound 10.0 µM): 38%
residual activity (CAMKK2 (human); compound 1.0 µM): 28%
residual activity (CAMKK2 (human); compound 10.0 µM): 7%
residual activity (DAPK1 (human); compound 1.0 µM): 43%
residual activity (DAPK1 (human); compound 10.0 µM): 9%
residual activity (DYRK1A (human); compound 1.0 µM): 85%
residual activity (DYRK1A (human); compound 10.0 µM): 48%
residual activity (EEF2K (human); compound 1.0 µM): 116%
residual activity (EEF2K (human); compound 10.0 µM): 107%
residual activity (EPHB4 (human); compound 1.0 µM): 96%
residual activity (EPHB4 (human); compound 10.0 µM): 87%
residual activity (ERBB4 (human); compound 1.0 µM): 97%
residual activity (ERBB4 (human); compound 10.0 µM): 70%
residual activity (FGFR1 (human); compound 1.0 µM): 118%
residual activity (FGFR1 (human); compound 10.0 µM): 95%
residual activity (GSK3B (human); compound 1.0 µM): 90%
residual activity (GSK3B (human); compound 10.0 µM): 83%
residual activity (HIPK3 (human); compound 1.0 µM): 107%
residual activity (HIPK3 (human); compound 10.0 µM): 98%
residual activity (IGF1R (human); compound 1.0 µM): 32%
residual activity (IGF1R (human); compound 10.0 µM): 38%
residual activity (IKBKE (human); compound 1.0 µM): 78%
residual activity (IKBKE (human); compound 10.0 µM): 23%
residual activity (MAP2K2 (human); compound 1.0 µM): 93%
residual activity (MAP2K2 (human); compound 10.0 µM): 90%
residual activity (MAP2K6 (human); compound 1.0 µM): 72%
residual activity (MAP2K6 (human); compound 10.0 µM): 31%
residual activity (MAP3K5 (human); compound 1.0 µM): 44%
residual activity (MAP3K5 (human); compound 10.0 µM): 10%
residual activity (MAPK12 (human); compound 1.0 µM): 99%
residual activity (MAPK12 (human); compound 10.0 µM): 102%
residual activity (MAPK13 (human); compound 1.0 µM): 102%
residual activity (MAPK13 (human); compound 10.0 µM): 98%
residual activity (MAPK3 (human); compound 1.0 µM): 85%
residual activity (MAPK3 (human); compound 10.0 µM): 54%
residual activity (MAPK9 (human); compound 1.0 µM): 104%
residual activity (MAPK9 (human); compound 10.0 µM): 89%
residual activity (MAPKAPK2 (human); compound 1.0 µM): 107%
residual activity (MAPKAPK2 (human); compound 10.0 µM): 85%
residual activity (MAPKAPK5 (human); compound 1.0 µM): 80%
residual activity (MAPKAPK5 (human); compound 10.0 µM): 55%
residual activity (MARK1 (human); compound 1.0 µM): 97%
residual activity (MARK1 (human); compound 10.0 µM): 58%
residual activity (MELK (human); compound 1.0 µM): 90%
residual activity (MELK (human); compound 10.0 µM): 43%
residual activity (MKNK1 (human); compound 1.0 µM): 92%
residual activity (MKNK1 (human); compound 10.0 µM): 45%
residual activity (PAK7 (human); compound 1.0 µM): 95%
residual activity (PAK7 (human); compound 10.0 µM): 56%
residual activity (PHKG1 (human); compound 1.0 µM): 23%
residual activity (PHKG1 (human); compound 10.0 µM): 3%
residual activity (PIM1 (human); compound 1.0 µM): 94%
residual activity (PIM1 (human); compound 10.0 µM): 99%
residual activity (PIM2 (human)): 93%
residual activity (PIM3 (human); compound 1.0 µM): 105%
residual activity (PIM3 (human); compound 10.0 µM): 76%
residual activity (PRKAA1 or PRKAA2 (rat); compound 1.0 µM): 75%
residual activity (PRKAA1 or PRKAA2 (rat); compound 10.0 µM): 56%
residual activity (PRKACA (human)): 96%
residual activity (PRKCZ (human); compound 1.0 µM): 99%
residual activity (PRKCZ (human); compound 10.0 µM): 83%
residual activity ([1]; compound 1.0 µM): 72%
residual activity ([1]; compound 10.0 µM): 59%
residual activity (STK3 (human); compound 1.0 µM): 85%
residual activity (STK3 (human); compound 10.0 µM): 73%
residual activity (SYK (human); compound 1.0 µM): 70%
residual activity (SYK (human); compound 10.0 µM): 33%
SMILES: CCNc1nc(Nc2cc(F)c(C(=O)N3CCOCC3)cc2OC)ncc1C(F)(F)F
